Laboratory results from ChEMBL document CHEMBL3098072 (Bioorg Med Chem, 2014).
Values after ≈ are worked out from the molar mass of the structure shown. Active and inactive are the calls of the source. The rule behind the calls is not given here.

Columns and labels:
[1] = Cytotoxicity against mouse J774A1 cells at 64 uM after 2 hrs by MTS assay relative to control; type: cell-based; conditions: j774.a1, 2 h
HeLa = test: Cytotoxicity against human HeLa cells at 64 uM after 2 hrs by MTS assay relative to control; type: cell-based
[2] = system: Mycobacterium tuberculosis; test: microbe, parasite or virus in culture; conditions: H37Rv, 96 h
[3] = Solubility of the compound in DMSO; type: physicochemical
[4] = molecular target: T1, Inorganic pyrophosphatase (Mycobacterium tuberculosis (strain ATCC 25618 / H37Rv)) (UniProt P9WI55); test: Inhibition of Mycobacterium tuberculosis PPase at 100 uM using inorganic pyrophosphate as substrate preincubated for 2 mins followed by substrate addition measured after 6 mins by malachite green assay
T1 sequence (whole entry): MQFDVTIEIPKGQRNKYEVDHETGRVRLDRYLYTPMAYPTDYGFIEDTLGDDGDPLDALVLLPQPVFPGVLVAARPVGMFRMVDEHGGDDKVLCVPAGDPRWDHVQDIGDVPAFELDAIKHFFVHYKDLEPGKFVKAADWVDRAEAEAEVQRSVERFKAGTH

[5] = molecular target: T2, Inorganic pyrophosphatase (Mycobacterium tuberculosis (strain ATCC 25618 / H37Rv), UniProt P9WI55); test: Inhibition of Mycobacterium tuberculosis PPase using inorganic pyrophosphate as substrate preincubated for 2 mins followed by substrate addition measured after 6 mins by malachite green assay
T2 sequence (P9WI55 whole entry): T1 sequence (whole entry)

Bacillus anthracis = test: microbe, parasite or virus in culture; conditions: Sterne 34F2, 20 h
Bacillus subtilis = test: microbe, parasite or virus in culture; conditions: 20 h
Staphylococcus aureus = test: microbe, parasite or virus in culture; conditions: 20 h

| Compound | MIC [2] [µM] | inhibition [4] | other results |
| --- | --- | --- | --- |
| Nc1cccc(-c2cnnc(N3CCC(c4cccc(Cl)c4)C3)n2)c1 (stereo not drawn) | – | – | Activity [1]: Non-toxic; Activity (HeLa): Non-toxic |
| Cc1ccc(-c2cnnc(N3CCC(c4cccc([N+](=O)[O-])c4)C3)n2)o1 (stereo not drawn) | > 16 | – | solubility [3]: < 100 µM |
| Clc1cccc(C2CCN(c3nncc(-c4ccc5c(c4)OCO5)n3)C2)c1 (stereo not drawn) | > 16 | – | solubility [3]: < 100 µM |
| CO[C@H]1/C=C/O[C@@]2(C)Oc3c(C)c(O)c4c(O)c(c(/C=N/N5CCN(C)CC5)c(O)c4c3C2=O)NC(=O)/C(C)=C\C=C\[C@H](C)[C@H](O)[C@@H](C)[C@@H](O)[C@@H](C)[C@H](OC(C)=O)[C@@H]1C [RIFAMPIN] | 0.08 (≈ 0.0658 µg/mL) | – | – |
| NNC(=O)c1ccncc1 [ISONIAZID] | 0.45 (≈ 0.0617 µg/mL) | – | – |
| Cc1ccc(-c2cnnc(N3CCC(c4cccc(C(F)(F)F)c4)C3)n2)o1 (stereo not drawn) | 52.4 (≈ 19.6 µg/mL) | 37.8% | IC50 [5]: 355 µM |
| Cc1ccc(-c2cnnc(N3CCC(c4cccc(F)c4)C3)n2)o1 (stereo not drawn) | 38.9 (≈ 12.6 µg/mL) | 21.3% | – |
| O=[N+]([O-])c1ccc(-c2cnnc(N3CCC(c4cccc(Cl)c4)C3)n2)cc1 (stereo not drawn) | 31.2 (≈ 11.9 µg/mL) | 30.3% | – |
| Cc1ccc(-c2cnnc(N3CCC(c4cccc(OCc5ccccc5)c4)C3)n2)o1 (stereo not drawn) | – | 73.2% | IC50 [5]: 63.2 µM |
| Clc1cccc(C2CCN(c3nncc(-c4ccc(Br)cc4)n3)C2)c1 (stereo not drawn) | 30.7 (≈ 12.8 µg/mL) | 53% | IC50 [5]: 33.3 µM |
| FC(F)(F)c1ccccc1-c1ccc(-c2cnnc(N3CCC(c4cccc(Cl)c4)C3)n2)o1 (stereo not drawn) | > 128 | 67.7% | IC50 [5]: 38.3 µM |
| Nc1ccc(-c2cnnc(N3CCC(c4cccc(Cl)c4)C3)n2)cc1 (stereo not drawn) | 5.7 (≈ 2.01 µg/mL) | – | Activity [1]: Non-toxic; MBC (Bacillus anthracis): 128 µM (≈ 45 µg/mL); MIC (Bacillus anthracis): 16 µM (≈ 5.63 µg/mL); Activity (HeLa): Non-toxic |
| Cc1ccc(-c2cnnc(N3CCC(c4cccc(O)c4)C3)n2)o1 (stereo not drawn) | 60.3 (≈ 19.4 µg/mL) | inactive | MIC (Bacillus subtilis): 128 µM (≈ 41.3 µg/mL); MIC (Staphylococcus aureus): > 50 µM; Activity [1]: Non-toxic; MBC (Bacillus anthracis): 128 µM (≈ 41.3 µg/mL); MIC (Bacillus anthracis): 64 µM (≈ 20.6 µg/mL); Activity (HeLa): Non-toxic |
| O=[N+]([O-])c1cccc(-c2ccc(-c3cnnc(N4CCC(c5cccc(Cl)c5)C4)n3)o2)c1 (stereo not drawn) | > 16 | – | solubility [3]: < 100 µM |
| COc1ccc(C2CCN(c3nncc(-c4ccc(C)o4)n3)C2)cc1O (stereo not drawn) | > 128 | 5% | – |
| O=[N+]([O-])c1cccc(-c2cnnc(N3CCC(c4cccc(Cl)c4)C3)n2)c1 (stereo not drawn) | > 128 | 39.4% | IC50 [5]: 118 µM |
| COc1ccc(-c2cnnc(N3CCC(c4cccc(Cl)c4)C3)n2)cc1OC (stereo not drawn) | – | – | Activity [1]: Non-toxic; Activity (HeLa): Non-toxic |
| Cc1ccc(-c2cnnc(N3CCC(c4ccc(O)c(O)c4)C3)n2)o1 (stereo not drawn) | > 128 | inactive | – |
| Clc1cccc(C2CCN(c3nncc(-c4ccccc4)n3)C2)c1 (stereo not drawn) | – | – | Activity [1]: Non-toxic; Activity (HeLa): Non-toxic |
| CN[C@H](CC(C)C)C(=O)N[C@H]1C(=O)N[C@@H](CC(N)=O)C(=O)N[C@H]2C(=O)N[C@H]3C(=O)N[C@H](C(=O)N[C@H](C(=O)O)c4cc(O)cc(O)c4-c4cc3ccc4O)[C@H](O)c3ccc(c(Cl)c3)Oc3cc2cc(c3O[C@@H]2O[C@H](CO)[C@@H](O)[C@H](O)[C@H]2O[C@H]2C[C@](C)(N)[C@H](O)[C@H](C)O2)Oc2ccc(cc2Cl)[C@H]1O [VANCOMYCIN] | – | – | MBC (Bacillus subtilis): < 1 µM; MIC (Bacillus subtilis): < 1 µM; MBC (Bacillus anthracis): < 1 µM; MIC (Bacillus anthracis): < 1 µM |
| Cc1ccc(-c2cnnc(N3CCC(c4cccc(N)c4)C3)n2)o1 (stereo not drawn) | 70.1 (≈ 22.5 µg/mL) | 33.4% | – |
| Cc1ccc(-c2cnnc(N3CCC(c4cccc(Cl)c4)C3)n2)o1 (stereo not drawn) | 61 (≈ 20.8 µg/mL) | 45.6% | IC50 [5]: 148 µM |
| Cc1ccc(-c2cnnc(N3CCC(c4cccc(C#N)c4)C3)n2)o1 (stereo not drawn) | 64.4 (≈ 21.3 µg/mL) | 10.3% | – |
| O=[N+]([O-])c1cccc(-c2ccc(-c3cnnc(N4CCC(c5cccc(Cl)c5)C4)n3)cc2)c1 (stereo not drawn) | > 128 | inactive | – |
| COC(=O)c1cccc(-c2ccc(-c3cnnc(N4CCC(c5cccc(Cl)c5)C4)n3)o2)c1 (stereo not drawn) | > 16 | – | solubility [3]: < 100 µM |
| Cc1ccc(-c2cnnc(N3CCC(c4ccccc4)C3)n2)o1 (stereo not drawn) | 40.5 (≈ 12.4 µg/mL) | 19.7% | – |
| Cc1ccc(-c2cnnc(N3CCC(n4cnc5c(N)ncnc54)C3)n2)o1 (stereo not drawn) | > 128 | inactive | – |
